Measured values from BindingDB's records for patent US20240116873 (JIANGSU CHIATAI QINGJIANG PHARMACEUTICAL CO., LTD., 2024).

What was measured:
[1] = target: T1, Solute carrier family 22 member 12 (Homo sapiens, UniProt Q96S37); assay: Inhibitory Assay
T1 sequence (Q96S37 whole entry): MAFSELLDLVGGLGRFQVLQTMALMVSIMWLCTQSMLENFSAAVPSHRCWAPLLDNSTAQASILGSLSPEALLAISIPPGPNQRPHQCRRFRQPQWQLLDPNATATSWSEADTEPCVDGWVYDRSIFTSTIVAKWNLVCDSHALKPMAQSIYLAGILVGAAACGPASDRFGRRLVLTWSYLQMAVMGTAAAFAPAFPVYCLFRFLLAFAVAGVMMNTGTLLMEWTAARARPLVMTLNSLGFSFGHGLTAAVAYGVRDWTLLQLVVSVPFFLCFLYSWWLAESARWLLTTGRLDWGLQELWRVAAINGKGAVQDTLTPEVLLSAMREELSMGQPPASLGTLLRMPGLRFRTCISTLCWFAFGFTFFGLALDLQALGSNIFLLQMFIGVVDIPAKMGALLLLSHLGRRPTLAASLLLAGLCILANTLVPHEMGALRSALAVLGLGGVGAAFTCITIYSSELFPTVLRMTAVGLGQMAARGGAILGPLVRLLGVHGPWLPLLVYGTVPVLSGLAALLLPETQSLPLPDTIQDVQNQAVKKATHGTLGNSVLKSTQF

[2] = target: T2, Solute carrier family 22 member 11 (Homo sapiens, UniProt Q9NSA0); assay: Inhibitory Assay
T2 sequence (Q9NSA0 whole entry): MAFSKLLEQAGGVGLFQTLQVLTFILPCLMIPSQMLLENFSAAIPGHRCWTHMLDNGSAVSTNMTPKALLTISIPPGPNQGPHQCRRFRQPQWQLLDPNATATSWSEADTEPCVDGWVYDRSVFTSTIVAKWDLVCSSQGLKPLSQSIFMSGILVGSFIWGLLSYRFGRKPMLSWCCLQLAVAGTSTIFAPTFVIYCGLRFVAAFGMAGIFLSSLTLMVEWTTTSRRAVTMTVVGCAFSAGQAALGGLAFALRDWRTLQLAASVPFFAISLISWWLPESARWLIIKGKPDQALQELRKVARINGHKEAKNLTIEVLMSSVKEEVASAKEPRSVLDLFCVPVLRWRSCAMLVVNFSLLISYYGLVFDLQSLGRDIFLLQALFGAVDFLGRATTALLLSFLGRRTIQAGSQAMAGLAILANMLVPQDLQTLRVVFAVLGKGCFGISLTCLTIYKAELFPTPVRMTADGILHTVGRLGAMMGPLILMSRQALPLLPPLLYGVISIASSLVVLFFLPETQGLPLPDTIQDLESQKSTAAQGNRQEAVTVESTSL

Row | IC50 [1] | IC50 [2] | SMILES
1 | 3420 nM |  | CC(C)(Sc1ccnc2ccc(Br)cc12)C(=O)NS(=O)(=O)c1cccs1 [US20240116873, Compound E]
2 | 1180 nM |  | CCS(=O)(=O)NC(=O)C(C)(C)Sc1ccnc2ccc(Br)cc12 [US20240116873, Compound C]
3 | 2790 nM |  | CC(C)(Sc1ccnc2ccc(F)cc12)C(=O)NS(C)(=O)=O [US20240116873, Compound B]
4 | 3150 nM |  | Cc1ccc2nccc(SC(C)(C)C(=O)NS(C)(=O)=O)c2c1 [US20240116873, Compound A]
5 |  | 83.8 µM | CC(C)(Sc1ccnc2ccc(C(F)(F)F)cc12)C(=O)NS(C)(=O)=O [US20240116873, Compound D]
